The record followed here is ChEMBL document CHEMBL3784947, “Pharmacophore elucidation of phosphoiodyn A - Potent and selective peroxisome proliferator-activated receptor β/δ agonists with neuroprotective activity” (Bioorg Med Chem Lett, 2016).

The test system of experiment [1] is PC-12. In words: Neuroprotective activity against serum starvation-induced apoptosis in rat PC12 cells assessed as cell survival at 1 to 30 uM after 24 hrs by prestoblue staining based fluorescence assay (reference value: 55%). It is filed as functional.
In experiment [2] the test system is PC-12. In words: Neuroprotective activity against etoposide-induced apoptosis in rat PC12 cells assessed as cell viability at 3 uM preincubated for 4 hrs followed by etoposide addition measured after 48 hrs by prestoblue staining based fluorescence assay (reference value: 52 %). It is filed as functional. The conditions noted are these: read-out: Activity.
Experiment [3] concerns the target PPAR delta/gamma (Homo sapiens) (UniProt P37231+Q03181). In words: Ratio of EC50 for human PPAR gamma to EC50 for human PPAR delta.
The species named for another experiment is Homo sapiens. The experiment in a line: Ratio of EC50 for human PPAR alpha to EC50 for human PPAR delta.
The target of experiment [4] is T1, Peroxisome proliferator-activated receptor delta (Homo sapiens, UniProt Q03181).
T1 sequence (Q03181 whole entry): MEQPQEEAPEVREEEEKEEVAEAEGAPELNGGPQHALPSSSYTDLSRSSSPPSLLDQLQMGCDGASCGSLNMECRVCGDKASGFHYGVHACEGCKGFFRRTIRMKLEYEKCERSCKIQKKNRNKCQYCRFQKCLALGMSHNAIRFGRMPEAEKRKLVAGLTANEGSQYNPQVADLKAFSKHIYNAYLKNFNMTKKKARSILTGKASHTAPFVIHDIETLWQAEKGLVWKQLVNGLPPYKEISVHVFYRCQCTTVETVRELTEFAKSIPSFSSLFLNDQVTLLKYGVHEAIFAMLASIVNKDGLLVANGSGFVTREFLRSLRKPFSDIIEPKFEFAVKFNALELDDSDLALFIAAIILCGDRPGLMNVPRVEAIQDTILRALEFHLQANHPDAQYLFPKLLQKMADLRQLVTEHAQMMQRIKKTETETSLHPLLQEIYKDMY
In words: Agonist activity at PPAR delta (unknown origin) transfected in HEK293 cells after 24 hrs by dual-luciferase reporter gene assay. It is filed as cell-based.

For experiment [5], the target named is T1, Peroxisome proliferator-activated receptor delta. The experiment in a line: Agonist activity at human PPAR delta by cell based cotransfection assay.
Experiment [6] has as its target T2, Peroxisome proliferator-activated receptor alpha (Homo sapiens) (UniProt Q07869).
T2 sequence (whole entry): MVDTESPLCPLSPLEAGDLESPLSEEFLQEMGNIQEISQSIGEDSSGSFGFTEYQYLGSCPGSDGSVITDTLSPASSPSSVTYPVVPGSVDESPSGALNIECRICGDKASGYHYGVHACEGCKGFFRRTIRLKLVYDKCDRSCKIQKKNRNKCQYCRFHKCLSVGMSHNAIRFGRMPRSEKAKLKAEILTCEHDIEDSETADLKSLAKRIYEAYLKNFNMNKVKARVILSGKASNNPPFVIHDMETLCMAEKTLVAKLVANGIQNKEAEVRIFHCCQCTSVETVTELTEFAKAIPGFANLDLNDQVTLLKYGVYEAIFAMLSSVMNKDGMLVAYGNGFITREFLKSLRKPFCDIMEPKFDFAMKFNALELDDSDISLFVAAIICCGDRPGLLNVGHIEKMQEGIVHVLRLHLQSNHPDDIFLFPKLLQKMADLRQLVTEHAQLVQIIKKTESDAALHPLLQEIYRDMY
In words: Agonist activity at PPAR alpha (unknown origin) transfected in HEK293 cells at 1 uM after 24 hrs by dual-luciferase reporter gene assay. In kind it is cell-based.

Experiment [7] addresses T3, Peroxisome proliferator-activated receptor delta (Homo sapiens) (UniProt Q03181).
T3 sequence (whole entry): T1 sequence (Q03181 whole entry)
The experiment in a line: Agonist activity at PPAR delta (unknown origin) transfected in HEK293 cells at 1 uM after 24 hrs by dual-luciferase reporter gene assay. In kind it is cell-based.

Experiment [8] has as its target T4, Peroxisome proliferator-activated receptor gamma (Homo sapiens) (UniProt P37231).
T4 sequence (whole entry): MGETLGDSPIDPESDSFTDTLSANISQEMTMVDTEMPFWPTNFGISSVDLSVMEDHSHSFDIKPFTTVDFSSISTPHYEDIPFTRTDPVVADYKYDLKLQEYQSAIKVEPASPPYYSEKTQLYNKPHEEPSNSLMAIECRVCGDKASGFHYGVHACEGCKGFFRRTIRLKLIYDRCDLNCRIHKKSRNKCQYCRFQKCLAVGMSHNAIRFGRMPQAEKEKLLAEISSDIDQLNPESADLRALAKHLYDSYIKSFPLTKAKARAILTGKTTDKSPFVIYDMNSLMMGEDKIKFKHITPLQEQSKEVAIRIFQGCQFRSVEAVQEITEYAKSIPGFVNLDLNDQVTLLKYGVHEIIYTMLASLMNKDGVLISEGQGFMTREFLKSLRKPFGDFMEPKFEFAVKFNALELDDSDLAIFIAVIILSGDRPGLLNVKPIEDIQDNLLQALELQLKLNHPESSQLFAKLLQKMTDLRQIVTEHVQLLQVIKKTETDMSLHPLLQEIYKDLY
The experiment in a line: Agonist activity at PPAR gamma (unknown origin) transfected in HEK293 cells at 0.1 to 100 uM after 24 hrs by DR-1 luciferase reporter gene assay. In kind it is cell-based.

Experiment [9] concerns the target T4, Peroxisome proliferator-activated receptor gamma (Homo sapiens). In words: Agonist activity at PPAR gamma (unknown origin) transfected in HEK293 cells at 1 uM after 24 hrs by dual-luciferase reporter gene assay. It is filed as cell-based.
Experiment [10] has as its target T3, Peroxisome proliferator-activated receptor delta (Homo sapiens). The experiment in a line: Agonist activity at PPAR delta (unknown origin) transfected in HEK293 cells at 0.001 to 1000 uM after 24 hrs by pGL3-Luciferase reporter gene assay. In kind it is cell-based.
The target is the same in experiment [11]. The experiment in a line: Agonist activity at PPAR delta (unknown origin) transfected in HEK293 cells at 0.001 to 1000 uM after 24 hrs by DR-4 luciferase reporter gene assay. In kind it is cell-based.
The subject of experiment [12] is PC-12. The experiment in a line: Neuroprotective activity against etoposide-induced apoptosis in rat PC12 cells assessed as cell viability at 1 uM preincubated for 4 hrs followed by etoposide addition measured after 48 hrs by prestoblue staining based fluorescence assay. In kind it is functional.
The target of experiment [13] is T1, Peroxisome proliferator-activated receptor delta. In words: Agonist activity at PPAR delta (unknown origin).

Active and inactive are the calls of the source. No cut-off for these calls is given here.

Consider `CCOC(=O)Nc1ccc(NCc2ccc(F)cc2)nc1N` [FLUPIRTINE], for which the Survival with PC-12 [1] is 82%. For the same compound, the viability at 3 µM with PC-12 [2] was 80%.
With `O=P(O)(CCO)OCCC#CC#CCCCCCC/C=C/I`, the Ratio EC50 (in experiment [3]; in the experiment listed under Homo sapiens) was more than 200 in each case. Moreover, the EC50 in [4] is 24 nM; in [5], 23.7 nM.
Consider `CCOC(=O)CCO`, for which, in experiment [4], the EC50 was more than 1000 nM. The outcome in experiment [6], in experiment [7], in [8] and in experiment [9] was Active.
As for `CCOP(=O)(O)CCO`, the outcome in experiment [10], in experiment [11], in [6], in experiment [8] and in experiment [9] was inactive. The response in [4] was half-maximal at 78 nM (EC50). For the same compound, the Survival in the experiment with PC-12 [1] amounted to 77%. Moreover, the outcome (in [7]; in the experiment on PC-12 [12]) was Active. For the same compound, the viability at 3 µM with PC-12 [2] amounted to 110%.
Regarding `Cc1cccc(Nc2cc(Cl)nc(SCC(=O)O)n2)c1C`, the result in [6] was Active.
`O=P(O)(O)CCO` displayed an EC50 in experiment [4] of more than 100000 nM. Further, the result in experiment [6], in [8] and in experiment [9] was inactive.
Compound `C[C@@H]1CN(c2ccc(OC(F)(F)F)cc2)C[C@H](C)N1S(=O)(=O)c1cccc2c1C[C@@H](C(=O)O)C2` returned an EC50 in experiment [13] of 1.5 nM.
On to `CN(CCOc1ccc(CC2SC(=O)NC2=O)cc1)c1ccccn1` (stereo not given), for which the outcome in experiment [9] was Active.
Regarding `CCOP(=O)(CCO)OCC`, the result in experiment [10], in [11], in experiment [6], in experiment [8] and in experiment [9] was inactive. The compound also showed an EC50 in experiment [4] of 112 nM. Moreover, in the experiment with PC-12 [1], the Survival was determined as 78%. Besides, the outcome (in experiment [7]; with PC-12 [12]) was Active. Besides, in the experiment on PC-12 [2], the viability at 3 µM amounted to 116%.
Regarding `O=P(O)(OCO)OCCC#CC#CCCCCCC/C=C/I`, the EC50 in experiment [4] was more than 10000 nM; in experiment [5], more than 10 nM.
